Test results from ChEMBL document CHEMBL1152560, “Substituted 2-arylbenzothiazoles as kinase inhibitors: hit-to-lead optimization” (Bioorg Med Chem, 2009).

What was measured:
[1] = biological target: Insulin-like growth factor 1 receptor (Homo sapiens) (UniProt P08069); test: Residual activity of IGF1R at 1 uM by microplate scintillation counting
[2] = biological target: Receptor-type tyrosine-protein kinase FLT3 (Homo sapiens) (UniProt P36888); test: Residual activity of wild type FLT3 at 0.1 uM by microplate scintillation counting
[3] = biological target: T1, Tyrosine-protein kinase ITK/TSK (Homo sapiens) (UniProt Q08881); test: Residual activity of ITK at 0.1 uM by microplate scintillation counting
T1 sequence (whole entry): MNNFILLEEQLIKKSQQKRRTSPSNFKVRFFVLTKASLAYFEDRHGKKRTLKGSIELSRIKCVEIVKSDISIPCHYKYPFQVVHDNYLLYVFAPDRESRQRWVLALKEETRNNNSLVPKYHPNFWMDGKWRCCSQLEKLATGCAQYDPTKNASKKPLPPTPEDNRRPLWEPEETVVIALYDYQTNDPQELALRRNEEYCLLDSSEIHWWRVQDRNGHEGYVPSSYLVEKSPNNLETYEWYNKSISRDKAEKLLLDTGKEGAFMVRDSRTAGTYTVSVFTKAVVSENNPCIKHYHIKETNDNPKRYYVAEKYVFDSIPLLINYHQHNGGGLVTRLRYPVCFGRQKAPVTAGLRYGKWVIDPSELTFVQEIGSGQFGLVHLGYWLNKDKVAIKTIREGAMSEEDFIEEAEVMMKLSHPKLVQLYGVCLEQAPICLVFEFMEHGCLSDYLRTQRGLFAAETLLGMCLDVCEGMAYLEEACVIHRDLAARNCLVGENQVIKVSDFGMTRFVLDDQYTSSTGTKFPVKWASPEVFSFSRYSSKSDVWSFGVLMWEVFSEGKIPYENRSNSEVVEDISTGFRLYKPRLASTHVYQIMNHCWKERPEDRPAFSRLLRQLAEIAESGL

[4] = biological target: Cyclin-dependent kinase 16 (Homo sapiens) (UniProt Q00536); test: Residual activity of PCTAIRE1 at 1 uM by microplate scintillation counting
[5] = biological target: T2, Testis-specific serine/threonine-protein kinase 2 (Homo sapiens) (UniProt Q96PF2); test: Residual activity of TSK2 at 1 uM by microplate scintillation counting
T2 sequence (whole entry): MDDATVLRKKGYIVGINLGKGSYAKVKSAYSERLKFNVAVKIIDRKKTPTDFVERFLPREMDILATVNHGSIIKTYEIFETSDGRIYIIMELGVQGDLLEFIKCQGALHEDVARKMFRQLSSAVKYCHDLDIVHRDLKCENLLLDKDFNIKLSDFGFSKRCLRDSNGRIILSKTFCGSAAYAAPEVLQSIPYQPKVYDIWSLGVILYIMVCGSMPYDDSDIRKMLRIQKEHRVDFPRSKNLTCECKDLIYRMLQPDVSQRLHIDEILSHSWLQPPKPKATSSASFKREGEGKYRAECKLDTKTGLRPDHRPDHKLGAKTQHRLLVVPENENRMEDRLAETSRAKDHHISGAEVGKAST

[6] = biological target: T3, Ephrin type-A receptor 1 (Homo sapiens) (UniProt P21709); test: Residual activity of EPHA1 at 10 uM by microplate scintillation counting
T3 sequence (whole entry): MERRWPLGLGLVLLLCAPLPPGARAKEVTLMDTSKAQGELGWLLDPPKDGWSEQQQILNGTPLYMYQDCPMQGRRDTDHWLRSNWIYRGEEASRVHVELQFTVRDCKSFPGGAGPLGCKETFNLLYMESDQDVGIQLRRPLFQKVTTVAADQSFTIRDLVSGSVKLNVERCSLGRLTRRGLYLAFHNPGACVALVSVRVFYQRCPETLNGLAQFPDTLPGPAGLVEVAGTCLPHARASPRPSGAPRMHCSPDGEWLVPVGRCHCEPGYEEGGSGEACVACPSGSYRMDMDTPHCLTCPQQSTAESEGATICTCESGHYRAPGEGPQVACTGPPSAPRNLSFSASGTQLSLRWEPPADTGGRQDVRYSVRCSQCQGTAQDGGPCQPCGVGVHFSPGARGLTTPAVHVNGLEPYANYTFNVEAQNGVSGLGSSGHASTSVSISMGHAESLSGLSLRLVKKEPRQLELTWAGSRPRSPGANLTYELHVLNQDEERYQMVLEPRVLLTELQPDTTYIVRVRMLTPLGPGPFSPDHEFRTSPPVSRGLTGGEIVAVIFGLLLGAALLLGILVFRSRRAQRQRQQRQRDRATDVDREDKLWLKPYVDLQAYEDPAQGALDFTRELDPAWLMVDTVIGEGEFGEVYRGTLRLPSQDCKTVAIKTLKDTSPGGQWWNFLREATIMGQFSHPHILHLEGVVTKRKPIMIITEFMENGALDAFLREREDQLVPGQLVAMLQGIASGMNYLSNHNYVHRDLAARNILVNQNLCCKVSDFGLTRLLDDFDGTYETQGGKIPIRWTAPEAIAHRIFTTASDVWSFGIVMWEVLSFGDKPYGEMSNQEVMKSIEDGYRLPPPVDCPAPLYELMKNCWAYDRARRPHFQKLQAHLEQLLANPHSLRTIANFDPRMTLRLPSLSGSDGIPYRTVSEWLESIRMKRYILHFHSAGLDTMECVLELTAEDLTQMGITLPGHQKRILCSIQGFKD

[7] = biological target: Serine/threonine-protein kinase PAK 1 (Homo sapiens) (UniProt Q13153); test: Residual activity of PAK1 at 10 uM by microplate scintillation counting
[8] = biological target: Ribosomal protein S6 kinase alpha-1 (Homo sapiens) (UniProt Q15418); test: Residual activity of RPS6KA1 at 10 uM by microplate scintillation counting
[9] = biological target: Serine/threonine-protein kinase 33 (Homo sapiens) (UniProt Q9BYT3); test: Residual activity of STK33 at 10 uM by microplate scintillation counting
[10] = biological target: Rho-associated protein kinase 1 (Homo sapiens) (UniProt Q13464); test: Residual activity of ROCK1 at 0.1 uM by microplate scintillation counting
[11] = biological target: T4, Serine/threonine-protein kinase VRK1 (Homo sapiens) (UniProt Q99986); test: Residual activity of VRK1 at 10 uM by microplate scintillation counting
T4 sequence (whole entry): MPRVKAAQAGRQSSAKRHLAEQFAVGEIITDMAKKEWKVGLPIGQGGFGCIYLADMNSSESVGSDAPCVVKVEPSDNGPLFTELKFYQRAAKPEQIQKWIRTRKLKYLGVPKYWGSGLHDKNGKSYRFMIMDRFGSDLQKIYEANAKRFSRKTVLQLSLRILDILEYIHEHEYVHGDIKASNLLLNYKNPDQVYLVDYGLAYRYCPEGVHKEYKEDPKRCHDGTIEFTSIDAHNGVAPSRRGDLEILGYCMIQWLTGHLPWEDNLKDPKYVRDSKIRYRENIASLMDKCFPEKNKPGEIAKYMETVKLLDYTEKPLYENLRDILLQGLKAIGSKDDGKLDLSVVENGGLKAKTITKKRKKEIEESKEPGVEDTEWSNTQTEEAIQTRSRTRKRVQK

Sequence of Serine/threonine-protein kinase 33 (Homo sapiens) (Q9BYT3 whole entry, looked up): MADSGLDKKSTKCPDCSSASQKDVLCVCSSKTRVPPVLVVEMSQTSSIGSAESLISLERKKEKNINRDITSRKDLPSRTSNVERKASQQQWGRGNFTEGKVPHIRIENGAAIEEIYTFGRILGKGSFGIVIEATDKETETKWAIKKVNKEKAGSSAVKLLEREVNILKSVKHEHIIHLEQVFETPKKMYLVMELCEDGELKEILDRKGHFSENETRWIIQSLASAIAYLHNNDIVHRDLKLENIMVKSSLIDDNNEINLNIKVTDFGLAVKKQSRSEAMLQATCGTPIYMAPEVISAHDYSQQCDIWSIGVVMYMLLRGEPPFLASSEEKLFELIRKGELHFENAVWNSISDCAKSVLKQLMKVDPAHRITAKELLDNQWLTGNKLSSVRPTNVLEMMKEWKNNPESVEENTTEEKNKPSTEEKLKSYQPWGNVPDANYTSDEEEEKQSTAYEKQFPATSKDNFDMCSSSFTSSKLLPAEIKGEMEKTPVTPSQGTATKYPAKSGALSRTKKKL
Sequence of Rho-associated protein kinase 1 (Homo sapiens) (Q13464 2-1354 limits assumed): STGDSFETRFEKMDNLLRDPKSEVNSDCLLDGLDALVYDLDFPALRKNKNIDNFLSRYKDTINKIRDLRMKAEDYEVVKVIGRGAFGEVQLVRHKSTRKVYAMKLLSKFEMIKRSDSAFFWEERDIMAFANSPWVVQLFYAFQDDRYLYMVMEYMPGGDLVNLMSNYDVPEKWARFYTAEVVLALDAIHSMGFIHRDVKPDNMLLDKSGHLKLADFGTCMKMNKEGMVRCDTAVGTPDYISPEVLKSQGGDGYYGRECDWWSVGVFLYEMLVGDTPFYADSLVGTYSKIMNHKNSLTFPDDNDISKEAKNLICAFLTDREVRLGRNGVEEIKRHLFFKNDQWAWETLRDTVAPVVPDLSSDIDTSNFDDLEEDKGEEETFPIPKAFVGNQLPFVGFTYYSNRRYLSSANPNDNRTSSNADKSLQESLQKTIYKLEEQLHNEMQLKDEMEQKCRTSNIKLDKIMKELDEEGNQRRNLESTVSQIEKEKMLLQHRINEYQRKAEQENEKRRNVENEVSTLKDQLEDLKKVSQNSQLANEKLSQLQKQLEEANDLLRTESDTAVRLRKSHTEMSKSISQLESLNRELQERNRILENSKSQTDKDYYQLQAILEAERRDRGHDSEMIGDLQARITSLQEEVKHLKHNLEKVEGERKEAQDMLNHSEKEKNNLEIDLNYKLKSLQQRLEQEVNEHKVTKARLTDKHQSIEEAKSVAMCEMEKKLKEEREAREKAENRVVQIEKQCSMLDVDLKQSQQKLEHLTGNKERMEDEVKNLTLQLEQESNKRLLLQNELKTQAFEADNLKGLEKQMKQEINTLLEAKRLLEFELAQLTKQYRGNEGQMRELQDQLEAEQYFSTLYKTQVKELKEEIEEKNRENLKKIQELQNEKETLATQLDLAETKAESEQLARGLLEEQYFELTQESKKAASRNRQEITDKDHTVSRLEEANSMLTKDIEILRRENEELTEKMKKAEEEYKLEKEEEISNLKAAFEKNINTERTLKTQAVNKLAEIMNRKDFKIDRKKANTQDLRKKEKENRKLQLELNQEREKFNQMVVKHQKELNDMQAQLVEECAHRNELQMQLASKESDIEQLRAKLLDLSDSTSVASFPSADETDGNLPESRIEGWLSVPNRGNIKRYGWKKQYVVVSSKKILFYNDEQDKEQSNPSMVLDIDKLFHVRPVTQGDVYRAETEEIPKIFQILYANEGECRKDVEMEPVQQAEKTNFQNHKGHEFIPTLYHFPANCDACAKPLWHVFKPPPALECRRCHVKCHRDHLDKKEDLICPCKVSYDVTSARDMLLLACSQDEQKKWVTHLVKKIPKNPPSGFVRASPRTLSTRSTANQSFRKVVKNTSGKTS
Sequence of Receptor-type tyrosine-protein kinase FLT3 (Homo sapiens) (P36888 whole entry): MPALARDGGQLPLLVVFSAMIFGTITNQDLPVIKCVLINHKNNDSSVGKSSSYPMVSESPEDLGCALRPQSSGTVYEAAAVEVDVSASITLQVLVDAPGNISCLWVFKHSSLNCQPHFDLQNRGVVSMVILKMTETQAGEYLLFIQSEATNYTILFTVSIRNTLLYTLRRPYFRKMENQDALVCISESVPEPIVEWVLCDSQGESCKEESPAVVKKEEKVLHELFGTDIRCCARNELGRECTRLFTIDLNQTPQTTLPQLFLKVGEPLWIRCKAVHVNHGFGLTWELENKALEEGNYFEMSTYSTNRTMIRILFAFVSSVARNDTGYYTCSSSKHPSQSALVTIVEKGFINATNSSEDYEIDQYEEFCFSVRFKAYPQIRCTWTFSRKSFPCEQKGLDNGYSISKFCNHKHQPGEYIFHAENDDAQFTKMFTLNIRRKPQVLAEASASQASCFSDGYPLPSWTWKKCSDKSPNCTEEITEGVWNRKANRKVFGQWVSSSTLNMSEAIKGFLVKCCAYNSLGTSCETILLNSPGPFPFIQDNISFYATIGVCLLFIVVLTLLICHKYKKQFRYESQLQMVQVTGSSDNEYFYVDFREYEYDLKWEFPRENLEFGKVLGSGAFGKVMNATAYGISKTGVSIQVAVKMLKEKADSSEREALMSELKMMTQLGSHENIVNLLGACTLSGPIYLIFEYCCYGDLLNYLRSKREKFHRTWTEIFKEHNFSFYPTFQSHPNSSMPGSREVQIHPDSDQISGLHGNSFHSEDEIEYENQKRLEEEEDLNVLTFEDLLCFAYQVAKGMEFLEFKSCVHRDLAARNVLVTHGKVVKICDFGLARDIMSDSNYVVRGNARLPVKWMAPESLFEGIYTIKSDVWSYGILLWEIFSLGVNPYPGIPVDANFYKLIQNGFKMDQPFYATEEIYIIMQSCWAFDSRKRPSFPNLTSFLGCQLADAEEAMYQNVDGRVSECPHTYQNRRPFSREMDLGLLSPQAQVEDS
Sequence of Serine/threonine-protein kinase PAK 1 (Homo sapiens) (Q13153 whole entry): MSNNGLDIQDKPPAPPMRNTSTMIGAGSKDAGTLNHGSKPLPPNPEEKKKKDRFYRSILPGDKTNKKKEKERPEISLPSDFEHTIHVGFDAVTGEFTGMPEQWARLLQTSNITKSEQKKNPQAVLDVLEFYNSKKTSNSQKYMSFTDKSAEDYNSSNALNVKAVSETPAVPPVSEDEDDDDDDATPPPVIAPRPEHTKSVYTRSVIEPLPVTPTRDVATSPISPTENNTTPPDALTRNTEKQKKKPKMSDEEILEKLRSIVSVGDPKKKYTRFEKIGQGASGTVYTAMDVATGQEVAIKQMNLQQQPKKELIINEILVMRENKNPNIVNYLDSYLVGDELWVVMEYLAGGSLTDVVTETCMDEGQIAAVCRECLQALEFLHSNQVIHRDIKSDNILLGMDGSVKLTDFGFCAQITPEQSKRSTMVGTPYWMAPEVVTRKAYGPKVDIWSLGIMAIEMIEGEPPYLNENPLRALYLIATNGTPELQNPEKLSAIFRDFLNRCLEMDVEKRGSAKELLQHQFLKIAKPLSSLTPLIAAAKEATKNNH
Sequence of Cyclin-dependent kinase 16 (Homo sapiens) (Q00536 whole entry): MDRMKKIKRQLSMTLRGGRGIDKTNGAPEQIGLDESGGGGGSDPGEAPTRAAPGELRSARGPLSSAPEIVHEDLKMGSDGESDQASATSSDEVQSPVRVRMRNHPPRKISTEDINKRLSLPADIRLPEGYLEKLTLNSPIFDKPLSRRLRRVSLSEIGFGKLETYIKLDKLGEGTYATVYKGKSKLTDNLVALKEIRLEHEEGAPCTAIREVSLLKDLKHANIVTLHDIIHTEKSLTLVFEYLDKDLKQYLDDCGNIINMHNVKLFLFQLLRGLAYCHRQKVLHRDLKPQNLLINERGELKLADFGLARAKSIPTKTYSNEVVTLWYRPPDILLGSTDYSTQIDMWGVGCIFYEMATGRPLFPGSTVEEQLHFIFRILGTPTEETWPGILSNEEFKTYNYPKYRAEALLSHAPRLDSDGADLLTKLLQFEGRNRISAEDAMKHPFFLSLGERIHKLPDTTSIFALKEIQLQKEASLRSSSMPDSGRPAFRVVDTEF
Sequence of Ribosomal protein S6 kinase alpha-1 (Homo sapiens) (Q15418 whole entry): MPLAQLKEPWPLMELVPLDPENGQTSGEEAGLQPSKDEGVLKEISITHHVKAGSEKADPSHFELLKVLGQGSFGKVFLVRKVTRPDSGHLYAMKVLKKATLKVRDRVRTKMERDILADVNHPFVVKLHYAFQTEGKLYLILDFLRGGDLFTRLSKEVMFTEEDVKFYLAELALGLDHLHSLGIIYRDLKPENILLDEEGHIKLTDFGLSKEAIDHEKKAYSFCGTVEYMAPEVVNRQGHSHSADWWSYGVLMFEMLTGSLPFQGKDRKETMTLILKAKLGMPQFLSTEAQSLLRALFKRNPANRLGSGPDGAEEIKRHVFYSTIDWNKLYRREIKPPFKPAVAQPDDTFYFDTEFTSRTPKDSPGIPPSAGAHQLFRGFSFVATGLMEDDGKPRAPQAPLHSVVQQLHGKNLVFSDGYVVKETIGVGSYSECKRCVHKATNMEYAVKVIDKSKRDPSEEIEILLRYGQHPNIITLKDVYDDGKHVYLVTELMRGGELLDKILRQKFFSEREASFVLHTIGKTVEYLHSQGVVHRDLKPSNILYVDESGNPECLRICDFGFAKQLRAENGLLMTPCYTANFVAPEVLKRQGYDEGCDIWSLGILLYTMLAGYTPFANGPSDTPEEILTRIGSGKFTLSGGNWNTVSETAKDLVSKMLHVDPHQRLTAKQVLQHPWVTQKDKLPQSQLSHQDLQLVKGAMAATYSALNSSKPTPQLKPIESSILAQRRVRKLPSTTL

residual activity [1] [%] | residual activity [2] [%] | residual activity [3] [%] | residual activity [4] [%] | residual activity [5] [%] | residual activity [6] [%] | residual activity [7] [%] | residual activity [8] [%] | residual activity [9] [%] | residual activity [10] [%] | residual activity [11] [%] | Compound
100 | 95 | 98 | 81 | 108 | 199 | 69 | 124 | 107 | 96 | 135 | COc1cc2c(Oc3ccc(-c4nc5ccccc5s4)cc3)ncnc2cc1OCCCN1CCCC1
100 | 112 | 99 | 88 | 92 | 169 | 68 | 206 | 81 | 98 | 127 | COc1cc2c(Oc3ccc(-c4nc5ccccc5s4)cc3)ncnc2cc1OCCCN1CCN(C)CC1
115 | 130 | 107 | 86 | 98 | 79 | 57 | 222 | 94 | 101 | 126 | COc1cc2c(Oc3ccc(-c4nc5ccccc5s4)cc3F)ncnc2cc1OCCCN1CCN(C)CC1
